Here are results for 1 molecule from PMC6696315, “Inhibiting Acetylcholinesterase to Activate Pleiotropic Prodrugs with Therapeutic Interest in Alzheimer’s Disease” (Molecules, 2019).

For one data set, the target named is AChE (Homo sapiens, UniProt P22303). Kind of data set: Kinetic study for AChE inhibition (Lineweaver-Burk plots). It counts as biochemical. As for the experimental part: To try to clarify the mechanism of action of 19 and 20, reciprocal plots of 1/velocity vs. 1/[substrate] were constructed at different concentrations of the substrate acetylthiocholine iodide (0.01–1 mM) by using the spectrometric method by Ellman et al.. Four concentrations of 19 were selected for the studies: 10^−6, 10^−7, 10^−8 and 10^−9 M for the kinetic analysis of AChE inhibition. Four concentrations of 20 were selected for the studies: 10^−5, 10^−6, 10^−7 and 10^−8 M for the kinetic analysis of AChE inhibition. The plots were assessed by a weighted least squares analysis that assumed the variance of velocity (ν) to be a constant percentage of ν for the entire dataset. Slopes of these reciprocal plots were then plotted against the concentration of 19 and 20 in a weighted analysis.
AChE, sequence (P22303 32-617 isoform P22303-2 limits assumed): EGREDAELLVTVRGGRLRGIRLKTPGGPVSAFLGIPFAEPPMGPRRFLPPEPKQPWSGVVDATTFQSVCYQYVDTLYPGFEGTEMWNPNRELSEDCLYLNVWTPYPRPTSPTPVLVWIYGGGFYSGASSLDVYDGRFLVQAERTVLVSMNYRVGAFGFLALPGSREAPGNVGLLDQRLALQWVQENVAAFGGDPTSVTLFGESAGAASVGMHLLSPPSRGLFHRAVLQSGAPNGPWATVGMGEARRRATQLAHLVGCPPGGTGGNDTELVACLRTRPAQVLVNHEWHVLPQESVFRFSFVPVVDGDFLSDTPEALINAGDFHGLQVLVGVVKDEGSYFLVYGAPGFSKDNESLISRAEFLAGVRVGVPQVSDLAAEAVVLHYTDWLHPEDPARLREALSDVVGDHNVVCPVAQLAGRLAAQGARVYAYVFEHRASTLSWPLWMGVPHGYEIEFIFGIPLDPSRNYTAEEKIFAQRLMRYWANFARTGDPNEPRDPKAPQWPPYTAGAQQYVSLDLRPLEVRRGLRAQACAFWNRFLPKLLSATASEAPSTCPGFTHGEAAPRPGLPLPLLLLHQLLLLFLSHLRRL

The next data set addresses T1, human 5-HT4R (Homo sapiens, UniProt Q13639).
T1 construct: purchased Eurofins HTS110M
The experiment in a line: 5-HT4R radioligand displacement assay ([3H]-GR113808). Type of data set: binding. The method, then:
All the synthesized phenolic derivatives and their carbamates were evaluated as potential inhibitors of human AChE, using the Ellman assay, as well as potential ligands for human 5-HT4R using a radioligand displacement assay. […].
For competition studies, 2.5 µg of proteins (5-HT4(b) membrane preparations, HTS110M, Eurofins. Eurofins’ 5-HT4(b) membrane preparations are crude membrane preparations made from their proprietary stable recombinant cell lines to ensure high-level of GPCR surface expression.) were incubated in duplicate at 25 °C for 60 min in the absence or the presence of 10^−6 or 10^−8M of each drug (9 was used as a reference standard) and 0.2 nM [^3H]-GR113808 (NET 1152, Perkin Elmer) in 25 mM Tris buffer (pH 7.4, 25 °C). At the end of the incubation, homogenates were filtered through Whatman GF/C filters (Alpha Biotech) pre-soaked with 0.5% polyethylenimine using a Brandel cell harvester. Filters were subsequently washed three times with 1 mL of ice-cold 25 mM Tris buffer (pH 7.4, 4 °C). Non-specific binding was evaluated in parallel in the presence of 30 µM serotonin. For some of these compounds, affinity constants were calculated from five-point inhibition curves using the GraphPad Prism 6 software and expressed as Ki ± SD.
In general terms: Loss of bound radioactivity is the signal in a displacement assay; it reports binding, not function.

The target in a further data set is T2, (ee)AChE (Electrophorus electricus, UniProt O42275).
T2 construct: purchased Sigma Aldrich
T2 sequence (O42275 24-633): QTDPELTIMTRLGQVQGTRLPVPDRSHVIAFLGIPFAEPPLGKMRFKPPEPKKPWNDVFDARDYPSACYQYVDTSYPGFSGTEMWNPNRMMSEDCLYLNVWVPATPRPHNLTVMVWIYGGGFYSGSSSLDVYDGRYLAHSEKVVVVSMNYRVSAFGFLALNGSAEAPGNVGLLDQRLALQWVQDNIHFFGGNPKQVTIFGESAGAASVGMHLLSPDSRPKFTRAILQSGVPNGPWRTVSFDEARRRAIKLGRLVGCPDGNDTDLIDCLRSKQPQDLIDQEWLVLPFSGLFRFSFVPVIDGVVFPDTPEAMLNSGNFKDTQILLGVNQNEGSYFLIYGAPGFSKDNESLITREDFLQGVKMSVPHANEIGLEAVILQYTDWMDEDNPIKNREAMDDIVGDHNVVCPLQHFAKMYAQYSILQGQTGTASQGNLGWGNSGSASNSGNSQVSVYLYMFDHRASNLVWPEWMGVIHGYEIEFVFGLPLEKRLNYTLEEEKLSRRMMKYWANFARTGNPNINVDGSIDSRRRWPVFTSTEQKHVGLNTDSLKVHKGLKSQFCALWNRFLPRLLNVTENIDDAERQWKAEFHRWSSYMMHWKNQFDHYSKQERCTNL
The experiment in a line: AChE-dependent decarbamoylation (UPLC, LCMS). It counts as biochemical. Particulars: 5 µM, PBS pH 7.4, 24 h. The method, then:
The in vitro decarbamoylation of 20 in the presence of AChE was established according to a new analytical method developed by Alix et al.. A large excess of Electrophorus electricus (eel)AChE was added to a solution of 20 in a phosphate-buffered saline (PBS) buffer (pH 7.4) at 25 °C. After 24 h of incubation, the solution was extracted by ethyl acetate, evaporated and solubilized in acetonitrile, and then analyzed by UPLC and LCMS. Owing to its high homology with the active-site sequence of the human AChE and its commercial availability, (ee)AChE is commonly used for in vitro assays and was chosen for this study.
The HPLC analyses were performed using an Agilent pump 1290, an autosampler 1290 and a diode array UV detector 1260 (Agilent technologies, Santa Clara, CA, USA). A reversed phase column C18 (Zorbax1 Eclipse Plus RRHD, 1.8 µm, 2.1 × 50 mm, Agilent) has been used for all components. A binary pump was used and the mobile phase was always composed of a mixture of (A) water (0.1% formic acid) and (B) acetonitrile (0.1% formic acid). Solutions of compound 19 and 20 were prepared in a PBS buffer (pH 7.4). […] The crude product was submerged in 50 µL of ACN, then analyzed by UPLC and LC-MS.

SMILES strings stand for the structures. “Also recorded” adds a separate entry of the source.

T1 sequence (Q13639 whole entry): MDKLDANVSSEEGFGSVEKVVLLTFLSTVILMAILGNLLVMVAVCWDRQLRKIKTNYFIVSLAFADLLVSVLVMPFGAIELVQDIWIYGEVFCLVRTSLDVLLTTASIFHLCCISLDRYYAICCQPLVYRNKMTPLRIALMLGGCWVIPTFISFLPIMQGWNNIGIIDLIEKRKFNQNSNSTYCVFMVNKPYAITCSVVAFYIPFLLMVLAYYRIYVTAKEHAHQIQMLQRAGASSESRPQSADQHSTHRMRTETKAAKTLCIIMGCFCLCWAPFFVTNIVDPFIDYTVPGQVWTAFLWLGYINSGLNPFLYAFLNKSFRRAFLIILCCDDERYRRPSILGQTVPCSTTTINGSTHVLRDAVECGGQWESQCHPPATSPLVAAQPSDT

For the molecule `CCN(C)C(=O)Oc1cccc(CN2CCC(CCC(=O)c3cc(Cl)c(N)cc3OC)CC2)c1.O=C(O)/C=C/C(=O)O` [Compound 20, [3-[[4-[3-(4-Amino-5-chloro-2-methoxyphenyl)-3-oxopropyl]-1-piperidyl]methyl]phenyl] N-ethyl-N-methyl-carbamate fumaric acid salt], the “mechanism of AChE inhibition” value at AChE was “mixed-type AChE inhibitor; also recorded: mixed-type inhibition”. For the same molecule, at human 5-HT4R (10^−8 M), the “(h)5-HT4R % Inhibition at 10^−8 M” value came out at 16%. Besides, the 5-HT4R affinity entry at human 5-HT4R (result in words) is reported as “devoid of any activity towards 5-HT4R”. The “decarbamoylation in the presence of (ee)AChE” value at (ee)AChE (250 U/mL (ee)AChE) is “decarbamoylation of 20 and release of 4”. For the same molecule, the “chemical conversion in PBS buffer without (ee)AChE” value on (ee)AChE (negative control) is given as “not chemically converted into 4”.
